Where a name gives a salt, the structure may show the parent alone.
Biological target: T1, recombinant human GR (Homo sapiens, UniProt P04150)
T1 construct: purchased Panvera/Invitrogen P2812 (kit P2893)
T1 sequence (P04150 1-777): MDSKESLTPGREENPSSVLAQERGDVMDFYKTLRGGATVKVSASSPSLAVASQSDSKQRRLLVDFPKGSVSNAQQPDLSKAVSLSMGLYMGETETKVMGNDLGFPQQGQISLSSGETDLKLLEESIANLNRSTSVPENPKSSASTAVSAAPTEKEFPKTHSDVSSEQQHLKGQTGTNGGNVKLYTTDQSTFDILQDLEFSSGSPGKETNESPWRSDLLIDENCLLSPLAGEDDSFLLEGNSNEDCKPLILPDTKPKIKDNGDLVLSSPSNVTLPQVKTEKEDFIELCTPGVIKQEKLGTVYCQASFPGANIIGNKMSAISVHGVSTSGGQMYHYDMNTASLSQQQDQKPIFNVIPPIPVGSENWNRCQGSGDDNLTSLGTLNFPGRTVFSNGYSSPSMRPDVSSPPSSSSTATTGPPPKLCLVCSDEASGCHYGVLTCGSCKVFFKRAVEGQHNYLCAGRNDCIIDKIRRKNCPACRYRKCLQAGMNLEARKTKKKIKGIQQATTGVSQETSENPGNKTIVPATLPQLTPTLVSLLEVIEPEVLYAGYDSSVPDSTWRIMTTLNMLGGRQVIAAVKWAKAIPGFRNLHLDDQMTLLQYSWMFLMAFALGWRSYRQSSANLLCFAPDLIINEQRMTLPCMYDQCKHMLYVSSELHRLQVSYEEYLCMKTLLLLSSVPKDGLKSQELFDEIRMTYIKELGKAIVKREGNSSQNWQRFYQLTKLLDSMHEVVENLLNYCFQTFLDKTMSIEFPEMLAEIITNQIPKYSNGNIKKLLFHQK
Test: Human Glucocorticoid Receptor (GR) Assay, fluorescence polarization
Type: binding
Conditions: GS Red tracer, incubated 2 h at r.t., XLfit model 205, read-out: GRhuFL_FP_v2 Mean IC50
Outline: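 Fluorescence polarization kit assay: recombinant GR and GS Red fluorescent ligand with Stabilizing Peptide and DTT in potassium phosphate/sodium molybdate/EDTA screening buffer. Plates incubated 2 h in the dark at r.t.; DMSO served as 0% and dexamethasone as 100% control.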

Row | IC50 | SMILES
1 | 4.1 nM | COc1cccc([C@@H](Oc2ccc3c(cnn3-c3ccc(F)cc3)c2)[C@H](C)NC(=O)c2nc3ccccc3[nH]2)c1 [Example 294, N-[(1R,2S)-1-[1-(4-fluorophenyl)indazol-5-yl]oxy-1-(3-methoxyphenyl)propan-2-yl]-1H-benzoimidazole-2-carboxamide]
2 | 5.7 nM | COc1cccc([C@@H](Oc2ccc3c(cnn3-c3ccc(F)cc3)c2)[C@H](C)NC(=O)c2ccc(Cl)s2)c1 [Example 295, 5-chloro-N-[(1R,2S)-1-[1-(4-fluorophenyl)indazol-5-yl]oxy-1-(3-methoxyphenyl)propan-2-yl]thiophene-2-carboxamide]
3 | 4 nM | COc1cccc([C@@H](Oc2ccc3c(cnn3-c3ccc(F)cc3)c2)[C@H](C)NC(=O)c2cc3ccccc3s2)c1 [Example 296, N-[(1R,2S)-1-[1-(4-fluorophenyl)indazol-5-yl]oxy-1-(3-methoxyphenyl)propan-2-yl]benzothiophene-2-carboxamide]
4 | 8.6 nM | COc1cccc([C@@H](Oc2ccc3c(cnn3-c3ccc(F)cc3)c2)[C@H](C)NC(=O)c2nc3ccccc3s2)c1 [Example 297, N-[(1R,2S)-1-[1-(4-fluorophenyl)indazol-5-yl]oxy-1-(3-methoxyphenyl)propan-2-yl]benzothiazole-2-carboxamide]
5 | 15 nM | COc1cccc([C@@H](Oc2ccc3c(cnn3-c3ccc(F)cc3)c2)[C@H](C)NC(=O)c2sc(C(F)(F)F)cc2O)c1 [Example 298, N-[(1R,2S)-1-[1-(4-fluorophenyl)indazol-5-yl]oxy-1-(3-methoxyphenyl)propan-2-yl]-3-hydroxy-5-(trifluoromethyl)thiophene-2-carboxamide]
6 | 3.1 nM | COCc1ccc(C(=O)N[C@@H](C)[C@H](Oc2ccc3c(cnn3-c3ccc(F)cc3)c2)c2cccc(OC)c2)s1 [Example 299, N-[(1R,2S)-1-[1-(4-fluorophenyl)indazol-5-yl]oxy-1-(3-methoxyphenyl)propan-2-yl]-5-(methoxymethyl)thiophene-2-carboxamide]
7 | 2.4 nM | C[C@H](NC(=O)C(C)(C)C)[C@H](Oc1ccc2c(cnn2-c2ccc(F)cc2)c1)c1ccccc1Cl [Example 300, N-((1R,2S)-1-(2-chlorophenyl)-1-(1-(4-fluorophenyl)-1H-indazol-5-yloxy)propan-2-yl)pivalamide]
8 | 5.2 nM | COc1cccc([C@@H](Oc2ccc3c(cnn3-c3ccc(F)cc3)c2)[C@H](C)NC(=O)C2CCN(C(=O)OC(C)(C)C)C2)c1 (stereo partly drawn) [Example 301, tert-butyl 3-((1R,2S)-1-(1-(4-fluorophenyl)-1H-indazol-5-yloxy)-1-(3-methoxyphenyl)propan-2-ylcarbamoyl)pyrrolidine-1-carboxylate]
9 | 3.2 nM | COc1cccc([C@@H](Oc2ccc3c(cnn3-c3ccc(F)cc3)c2)[C@H](C)NC(=O)C(C)(F)F)c1 [Example 302, 2,2-difluoro-N-((1R,2S)-1-(1-(4-fluorophenyl)-1H-indazol-5-yloxy)-1-(3-methoxyphenyl)propan-2-yl)propanamide]
10 | 5 nM | COc1cccc([C@@H](Oc2ccc3c(cnn3-c3ccc(F)cc3)c2)[C@H](C)NC(=O)[C@@H](C)N)c1 [Example 303, (R)-2-amino-N-((1R,2S)-1-(1-(4-fluorophenyl)-1H-indazol-5-yloxy)-1-(3-methoxyphenyl)propan-2-yl)propanamide trifluoroacetic acid salt]
11 | 7.5 nM | COc1cccc([C@@H](Oc2ccc3c(cnn3-c3ccc(F)cc3)c2)[C@H](C)NC(=O)[C@H]2CCCN2)c1 [Example 304, (R)-N-((1R,2S)-1-(1-(4-fluorophenyl)-1H-indazol-5-yloxy)-1-(3-methoxyphenyl)propan-2-yl)pyrrolidine-2-carboxamide trifluoroacetic acid salt]
12 | 8.3 nM | C[C@H](NC(=O)C(F)(F)F)[C@@H](COc1ccc(F)cc1F)Oc1ccc2c(cnn2-c2ccc(F)cc2)c1 [Example 305, N-((2S,3S)-4-(2,4-difluorophenoxy)-3-(1-(4-fluorophenyl)-1H-indazol-5-yloxy)butan-2-yl)-2,2,2-trifluoroacetamide]
13 | 4.8 nM | C[C@H](NC(=O)C(F)(F)F)[C@H](Oc1ccc2c(cnn2-c2ccc(F)cc2)c1)c1ccc2c(c1)OCC2 [Example 307, N-((1R,2S)-1-(2,3-dihydrobenzofuran-6-yl)-1-(1-(4-fluorophenyl)-1H-indazol-5-yloxy)propan-2-yl)-2,2,2-trifluoroacetamide]
14 | 6.9 nM | COc1cc([C@@H](Oc2ccc3c(cnn3-c3ccc(F)cc3)c2)[C@H](C)NC(=O)C(F)(F)F)ccc1SC [Example 308, 2,2,2-trifluoro-N-((1R,2S)-1-(1-(4-fluorophenyl)-1H-indazol-5-yloxy)-1-(3-methoxy-4-(methylthio)phenyl)propan-2-yl)acetamide]
